Experimental data published in ChEMBL document CHEMBL4229428, “Design, synthesis, X-ray studies, and biological evaluation of novel BACE1 inhibitors with bicyclic isoxazoline carboxamides as the P3 ligand” (Bioorg Med Chem Lett, 2018).

Target: T1, Beta-secretase 1 (Homo sapiens, UniProt P56817)
Test: Inhibition of BACE1 (unknown origin) by cell-based assay

T1 sequence (P56817 whole entry): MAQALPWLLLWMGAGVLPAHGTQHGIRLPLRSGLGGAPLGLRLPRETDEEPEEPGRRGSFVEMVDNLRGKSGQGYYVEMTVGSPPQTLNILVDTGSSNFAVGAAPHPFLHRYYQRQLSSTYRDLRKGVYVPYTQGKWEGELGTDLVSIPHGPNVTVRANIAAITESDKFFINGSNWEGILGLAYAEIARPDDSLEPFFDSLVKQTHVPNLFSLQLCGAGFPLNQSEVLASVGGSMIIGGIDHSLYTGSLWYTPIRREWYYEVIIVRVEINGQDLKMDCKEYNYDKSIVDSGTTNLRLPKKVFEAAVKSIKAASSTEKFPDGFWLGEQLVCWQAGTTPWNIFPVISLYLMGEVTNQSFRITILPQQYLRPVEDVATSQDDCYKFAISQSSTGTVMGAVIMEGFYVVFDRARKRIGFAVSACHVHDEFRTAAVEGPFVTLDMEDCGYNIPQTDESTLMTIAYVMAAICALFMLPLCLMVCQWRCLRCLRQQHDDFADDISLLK

| Compound | EC50 [nM] |
| --- | --- |
| CSC[C@H](NC(=O)C1=NO[C@@H]2OCC[C@H]12)C(=O)N[C@@H](CC(C)C)[C@@H](O)C[C@@H](C)C(=O)N[C@H](C(=O)NCC(C)C)C(C)C | 343 |

Target: T1, Beta-secretase 1
Test: Inhibition of recombinant BACE1 (unknown origin) using fluorogenic substrate

| Compound | Ki [nM] |
| --- | --- |
| CC(C)CNC(=O)[C@@H](NC(=O)[C@H](C)C[C@H](O)[C@H](CC(C)C)NC(=O)[C@H](CNC(=O)OC(C)(C)C)NC(=O)C1=NO[C@@H]2OCC[C@H]12)C(C)C | 809 |
| CSC[C@H](NC(=O)C1=NO[C@H]2OCC[C@@H]12)C(=O)N[C@@H](CC(C)C)[C@@H](O)C[C@@H](C)C(=O)N[C@H](C(=O)NCC(C)C)C(C)C | 554 |
| CSC[C@H](NC(=O)C1=NO[C@@H]2OCC[C@H]12)C(=O)N[C@@H](CC(C)C)[C@@H](O)C[C@@H](C)C(=O)N[C@H](C(=O)NCC(C)C)C(C)C | 10.9 |
| COc1cccc(CNC[C@@H](O)[C@H](Cc2ccccc2)NC(=O)[C@H](CS(C)(=O)=O)NC(=O)C2=NO[C@H]3OCC[C@@H]23)c1 | 28800 |
| CC(C)CNC(=O)[C@@H](NC(=O)[C@H](C)C[C@H](O)[C@H](CC(C)C)NC(=O)[C@H](CS(C)(=O)=O)NC(=O)C1=NO[C@@H]2OCCC[C@H]12)C(C)C | 28.1 |
| CC(C)CNC(=O)[C@@H](NC(=O)[C@H](C)C[C@H](O)[C@H](CC(C)C)NC(=O)[C@H](CNC(=O)OC(C)(C)C)NC(=O)C1=NO[C@H]2OCC[C@@H]12)C(C)C | 4120 |
| COc1cccc(CNC[C@@H](O)[C@H](Cc2ccccc2)NC(=O)[C@H](CS(C)(=O)=O)NC(=O)C2=NO[C@@H]3OCC[C@H]23)c1 | 41100 |
| CC(C)CNC(=O)[C@@H](NC(=O)[C@H](C)C[C@H](O)[C@H](CC(C)C)NC(=O)[C@H](CS(C)(=O)=O)NC(=O)C1=NO[C@@H]2OCC[C@H]12)C(C)C | 110 |
| CC(C)CNC(=O)[C@@H](NC(=O)[C@H](C)C[C@H](O)[C@H](CC(C)C)NC(=O)[C@H](CS(C)(=O)=O)NC(=O)C1=NO[C@H]2OCCC[C@@H]12)C(C)C | 630 |
| CC(C)CNC(=O)[C@@H](NC(=O)[C@H](C)C[C@H](O)[C@H](CC(C)C)NC(=O)[C@H](CS(C)(=O)=O)NC(=O)C1=NO[C@H]2OCC[C@@H]12)C(C)C | 280 |
